Test results taken from US12173088B2, “Anti-microbial peptides” (priority 2018, dated 2024).
Values after ≈ are worked out from the molar mass of the structure shown. Like-named read-outs stand apart in the source and are kept apart here. Peptide text beside a SMILES is read from it.

Tests used:
Hemolytic assay = format: cell-based, human; details: human, human red blood cells, 2% (v/v)
Summary of the method: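 Washed hRBCs (2% v/v) exposed to peptide for 1 h at 37 °C, then centrifuged and hemoglobin in supernatant read at 545 nm. Lysis normalized to Triton X-100 (2% or 1%; 100%) and PBS (0%); HL50 is the peptide concentration giving 50% lysis, and CSI is HL50/MIC.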

P. aeruginosa PAO1 = format: cell-based, Pseudomonas aeruginosa
Summary of the method: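 Broth microdilution in tryptic soy broth: log-phase cultures (OD600 ≈0.5) diluted to OD600 0.001, given two-fold peptide dilutions, incubated overnight at 37° C. Growth read at 630 nm.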

E. coli ATCC 25922 = format: cell-based, Escherichia coli
Summary of the method: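 Broth microdilution: log-phase E. coli diluted to OD600 0.001 and exposed to two-fold serial peptide dilutions overnight at 37 °C. Growth read at 630 nm.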

S. aureus USA300 = test: microbe, parasite or virus in culture; format: cell-based, Staphylococcus aureus
Summary of the method: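 Broth microdilution: log-phase cultures in tryptic soy broth diluted to OD600 0.001, exposed to two-fold diluted peptides at 37° C overnight, growth read at 630 nm. Medium effects on S. aureus USA300 tested with up to 200 mM NaCl, 2 mM CaCl2, 5-10% human serum, mouse plasma, fluids or tissue homogenate supernatants.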

[1] = test system: Klebsiella pneumoniae clinical strains; test: microbe, parasite or virus in culture; details: Klebsiella pneumoniae
Procedure: The antibacterial activity of peptides was evaluated using a standard broth microdilution protocol with minor modifications (Mishra, et al. (2017) Acta Biomater., 49:316-328). In brief, logarithmic phase bacterial cultures (i.e., optical density at 600 nm≈0.5) were diluted to 0.001 OD and aliquoted 90 μL per well into a 96-well polystyrene microplate. Added 10 μL peptides per well with various concentrations, plates were incubated at 37° C., overnight. Post incubation the plates are read at 630 nm using a ChroMate® Microplate Reader (GMI). […] To study the influence of medium conditions on the antimicrobial activity of peptides against S. aureus USA300 at different pHs (6.8, 7.2, and 8.0), 150 mM sodium chloride (NaCl), 5-10% of human serum, mouse plasma, and peritoneal fluid were included into the assays.

[2] = Table 4, quantitated based on weight

SMILES	HC50 at 1 h (Hemolytic assay)	MIC PA (P. aeruginosa PAO1) (P. aeruginosa PAO1; PAO1)	MIC EC (E. coli ATCC 25922) (E. coli ATCC 25922; ATCC 25922)	MIC SA (S. aureus USA300) (S. aureus USA300; USA300)	further results
CC(C)C[C@H](NC(=O)[C@H](CC(C)C)NC(=O)[C@H](CCCCN)NC(=O)[C@H](CC(C)C)NC(=O)CNC(=O)[C@H](CC(C)C)NC(=O)[C@H](CCCCN)NC(=O)[C@H](CC(C)C)NC(=O)[C@H](CC(C)C)NC(=O)[C@H](CC(C)C)NC(=O)[C@H](CO)NC(=O)[C@H](CC(C)C)NC(=O)CN)C(N)=O [DFT562, GLSLLLKLGLKLL] (H-GLSLLLKLGLKLL-NH2; N-terminus and C-terminus assumed)	< 25 µM	>25 µM	>25 µM		
CC(C)C[C@H](NC(=O)[C@H](CC(C)C)NC(=O)CNC(=O)[C@H](CC(C)C)NC(=O)[C@H](CC(C)C)NC(=O)[C@H](CO)NC(=O)[C@H](CC(C)C)NC(=O)[C@H](CC(C)C)NC(=O)[C@H](CO)NC(=O)[C@H](CC(C)C)NC(=O)[C@H](CC(C)C)NC(=O)[C@H](CCCCN)NC(=O)CN)C(N)=O [DFT527, GKLLSLLSLLGLL] (H-GKLLSLLSLLGLL-NH2; N-terminus and C-terminus assumed)	20 µM	>25 µM	>25 µM	3.1 µM (≈ 4.15 µg/mL)	
CC(C)C[C@H](NC(=O)[C@H](CC(C)C)NC(=O)[C@H](CCCCN)NC(=O)[C@H](CC(C)C)NC(=O)CNC(=O)[C@H](CC(C)C)NC(=O)[C@H](CCCCN)NC(=O)[C@H](CC(C)C)NC(=O)[C@H](CC(C)C)NC(=O)[C@H](CC(C)C)NC(=O)[C@H](CCCCN)NC(=O)[C@H](CC(C)C)NC(=O)[C@@H](N)CCCCN)C(N)=O [DFT565, KLKLLLKLGLKLL] (H-KLKLLLKLGLKLL-NH2; N-terminus and C-terminus assumed)	50 µM	>25 µM	>25 µM	0.8 µM (≈ 1.19 µg/mL)	MIC (S. aureus USA300; USA300): 3.1 µM (≈ 4.63 µg/mL); MIC (S. aureus USA300; USA300, pH 6.8): 3.1 to 6.2 µM; MIC (S. aureus USA300; USA300, pH 7.4): 3.1 µM (≈ 4.63 µg/mL); MIC (S. aureus USA300; USA300, pH 8): 3.1 µM (≈ 4.63 µg/mL)
CN(C)c1cc(NC(=O)CNC(C)(C)C)c(O)c2c1C[C@H]1C[C@H]3[C@H](N(C)C)C(O)=C(C(N)=O)C(=O)[C@@]3(O)C(O)=C1C2=O [Tigecycline, reference compound]					MIC ([1]; strain KP-231-18): 4 µM (≈ 2.34 µg/mL); MIC ([1]; strain KP-232-18): 8 µM (≈ 4.69 µg/mL); MIC ([1]; strain KP-245-18): 4 µM (≈ 2.34 µg/mL); MIC ([1]; strain KP-249-18): 2 µM (≈ 1.17 µg/mL); MIC ([1]; strain KP-253-18): 2 µM (≈ 1.17 µg/mL); MIC ([1]; strain KP-256-18): 4 µM (≈ 2.34 µg/mL); MIC ([1]; strain KP-257-18): 8 µM (≈ 4.69 µg/mL); MIC ([1]; strain KP-262-18): 4 µM (≈ 2.34 µg/mL); MIC ([1]; strain KP-270-18): 4 µM (≈ 2.34 µg/mL); MIC ([1]; strain KP-B42-15): < 2 µM; MIC ([1]; strain KP-B53-15): 2 µM (≈ 1.17 µg/mL); MIC ([1]; strain KP-B73-15): 2 µM (≈ 1.17 µg/mL); MIC ([1]; strain KP-B77-15): < 2 µM; MIC ([1]; strain KP-B1725-18): 2 µM (≈ 1.17 µg/mL)
CC(C)C[C@H](NC(=O)[C@H](CC(C)C)NC(=O)[C@H](CCCCN)NC(=O)[C@H](CC(C)C)NC(=O)CNC(=O)[C@H](CC(C)C)NC(=O)[C@H](CO)NC(=O)[C@H](CC(C)C)NC(=O)[C@H](CC(C)C)NC(=O)[C@H](CO)NC(=O)[C@H](CC(C)C)NC(=O)[C@H](CC(C)C)NC(=O)CN)C(N)=O [DFT531, GLLSLLSLGLKLL] (H-GLLSLLSLGLKLL-NH2; N-terminus and C-terminus assumed)					HC50 at 1 h (Hemolytic assay; Table 4, quantitated based on weight, read-out: HL50, peptide concentration for 50% hemolysis): 7 µM; MIC PA (P. aeruginosa PAO1) (P. aeruginosa PAO1; [2]): >25 µM; MIC SA (S. aureus USA300) (S. aureus USA300; [2]): 0.8 µM (≈ 1.07 µg/mL); MIC EC (E. coli ATCC 25922) (E. coli ATCC 25922; [2]): >25 µM
CC(C)C[C@H](NC(=O)[C@H](CC(C)C)NC(=O)[C@H](CCCCN)NC(=O)[C@H](CC(C)C)NC(=O)CNC(=O)[C@H](CC(C)C)NC(=O)[C@H](CO)NC(=O)[C@H](CC(C)C)NC(=O)[C@H](CC(C)C)NC(=O)[C@H](CC(C)C)NC(=O)[C@H](CO)NC(=O)[C@H](CC(C)C)NC(=O)[C@@H](N)CCCCN)C(N)=O [DFT560, KLSLLLSLGLKLL] (H-KLSLLLSLGLKLL-NH2; N-terminus and C-terminus assumed)	25 µM	>25 µM	>25 µM		MIC SA (S. aureus USA300) (S. aureus USA300; [2]): 1.6 µM (≈ 2.26 µg/mL)
CC(C)C[C@H](NC(=O)[C@H](CC(C)C)NC(=O)[C@H](CCCCN)NC(=O)[C@H](CC(C)C)NC(=O)CNC(=O)[C@H](CC(C)C)NC(=O)[C@H](CO)NC(=O)[C@H](CC(C)C)NC(=O)[C@H](CC(C)C)NC(=O)[C@H](CO)NC(=O)CNC(=O)[C@H](CC(C)C)NC(=O)[C@@H](N)CC(C)C)C(N)=O [DFT532, LLGSLLSLGLKLL] (H-LLGSLLSLGLKLL-NH2; N-terminus and C-terminus assumed)	13 µM	>25 µM	>25 µM	1.6 µM (≈ 2.14 µg/mL)	
CC(C)C[C@H](NC(=O)[C@H](CC(C)C)NC(=O)[C@H](CCCCN)NC(=O)CNC(=O)[C@H](CC(C)C)NC(=O)[C@H](CC(C)C)NC(=O)[C@H](CC(C)C)NC(=O)[C@H](CC(C)C)NC(=O)[C@H](CO)NC(=O)[C@H](CO)NC(=O)[C@H](CC(C)C)NC(=O)[C@H](CC(C)C)NC(=O)CN)C(N)=O [DFT505, GLLSSLLLLGKLL] (H-GLLSSLLLLGKLL-NH2; N-terminus and C-terminus assumed)	20 µM	>25 µM	>25 µM	3.1 µM (≈ 4.15 µg/mL)	
CC(C)C[C@H](NC(=O)[C@H](CC(C)C)NC(=O)[C@H](CCCCN)NC(=O)[C@H](CC(C)C)NC(=O)CNC(=O)[C@H](CC(C)C)NC(=O)[C@H](CCCCN)NC(=O)[C@H](CC(C)C)NC(=O)[C@H](CC(C)C)NC(=O)[C@H](CC(C)C)NC(=O)[C@H](CCCCN)NC(=O)[C@H](CC(C)C)NC(=O)CN)C(N)=O [DFT564, GLKLLLKLGLKLL] (H-GLKLLLKLGLKLL-NH2; N-terminus and C-terminus assumed)	< 25 µM	>25 µM	>25 µM		MIC (S. aureus USA300; USA300): 3.1 µM (≈ 4.4 µg/mL); MIC (S. aureus USA300; USA300, pH 6.8): 1.6 µM (≈ 2.27 µg/mL); MIC (S. aureus USA300; USA300, pH 7.4): 3.1 µM (≈ 4.4 µg/mL); MIC (S. aureus USA300; USA300, pH 8): 1.6 µM (≈ 2.27 µg/mL)
CC(C)C[C@H](NC(=O)[C@H](CCCCN)NC(=O)CNC(=O)[C@H](CC(C)C)NC(=O)[C@H](CC(C)C)NC(=O)[C@H](CC(C)C)NC(=O)[C@H](CO)NC(=O)[C@H](CC(C)C)NC(=O)[C@H](CC(C)C)NC(=O)[C@H](CC(C)C)NC(=O)[C@H](CO)NC(=O)[C@H](CC(C)C)NC(=O)CN)C(N)=O [DFT504, GLSLLLSLLLGKL] (H-GLSLLLSLLLGKL-NH2; N-terminus and C-terminus assumed)	8 µM	>25 µM	>25 µM	6.2 µM (≈ 8.3 µg/mL)	
CC(C)C[C@H](NC(=O)[C@H](CC(C)C)NC(=O)[C@H](CCCCN)NC(=O)[C@H](CC(C)C)NC(=O)[C@H](CCCCN)NC(=O)[C@H](CC(C)C)NC(=O)[C@H](CO)NC(=O)[C@H](CC(C)C)NC(=O)[C@H](CC(C)C)NC(=O)[C@H](CC(C)C)NC(=O)[C@H](CO)NC(=O)[C@H](CC(C)C)NC(=O)CN)C(N)=O [DFT563, GLSLLLSLKLKLL] (H-GLSLLLSLKLKLL-NH2; N-terminus and C-terminus assumed)	> 300 µM	>25 µM	>25 µM	6.2 µM (≈ 8.74 µg/mL)	
CC(C)C[C@H](NC(=O)[C@H](CC(C)C)NC(=O)[C@H](CCCCN)NC(=O)CNC(=O)[C@H](CC(C)C)NC(=O)[C@H](CC(C)C)NC(=O)[C@H](CO)NC(=O)[C@H](CC(C)C)NC(=O)[C@H](CC(C)C)NC(=O)[C@H](CC(C)C)NC(=O)[C@H](CO)NC(=O)[C@H](CC(C)C)NC(=O)CN)C(N)=O [DFT502, GLSLLLSLLGKLL] (H-GLSLLLSLLGKLL-NH2; N-terminus and C-terminus assumed)	3.1 µM	>25 µM	>25 µM	1.6 µM (≈ 2.14 µg/mL)	
